# Test system: Saccharomyces cerevisiae wild type strain BY4743
# Assay: AF1 metabolite analysis (GC-MS, LC-MS) of yeast cells treated with antifungal drugs
# Assay type: cell-based
# Settings: for # Compounds perturbed: 2x MIC, two hours
compound,measurement,setting,value
OC(Cn1cncn1)(Cn1cncn1)c1ccc(F)cc1F [Fluconazole],# Compounds perturbed,P < 0.05,2
same,# Compounds perturbed,P < 0.1,6
same,"Fold Change, alanine",platform GC,0.3084
same,"Fold Change, asparagine",platform GC,0.3999
same,"Fold Change, aspartic acid",platform GC,0.4337
same,"Fold Change, campesterol",platform GC,0
same,"Fold Change, desmosterol",platform GC,0
same,"Fold Change, disaccaride1",platform GC,0.3883
same,"Fold Change, disaccaride2",platform GC,0.1517
same,"Fold Change, disaccaride3",platform GC,0.5803
same,"Fold Change, ergosterol",platform GC,0.948
same,"Fold Change, fucosterol",platform GC,6.665
same,"Fold Change, glutamine",platform GC,0.5242
same,"Fold Change, glycanopyrose",platform GC,1.202
same,"Fold Change, glycerol",platform GC,0.2187
same,"Fold Change, glycine",platform GC,−0.1037
same,"Fold Change, hexadecanoic acid",platform GC,0.1343
same,"Fold Change, iso citric acid",platform GC,0.3923
same,"Fold Change, isoleucine",platform GC,0.391
same,"Fold Change, lanosterol",platform GC,8.462
same,"Fold Change, leucine",platform GC,0.3387
same,"Fold Change, lysine",platform GC,0.3412
same,"Fold Change, malic acid",platform GC,0.3975
same,"Fold Change, mevalonic acid lactone",platform GC,0.2333
same,"Fold Change, octadecanoic acid",platform GC,0.082
same,"Fold Change, oleic acid",platform GC,−0.3073
same,"Fold Change, ornithine2",platform GC,0.4473
same,"Fold Change, ornithine3",platform GC,0.2647
same,"Fold Change, palmiteliadic acid",platform GC,−0.08867
same,"Fold Change, phenylalanine",platform GC,0.2774
same,"Fold Change, phosphate",platform GC,−0.508
same,"Fold Change, pyrimidine",platform GC,0.2457
same,"Fold Change, 2-ketobutyric acid",platform nLC,−0.9992
same,"Fold Change, 2-ketoglutaric",platform nLC,−0.9995
same,"Fold Change, 3-indolylacetonitri",platform nLC,−0.9998
same,"Fold Change, 4-methylcatechol",platform nLC,0
same,"Fold Change, 4aminobutyrate/dimg",platform nLC,0.1384
same,"Fold Change, 5hydroxyLtryptophan",platform nLC,0
same,"Fold Change, 6-benzylaminopurine",platform nLC,0
same,"Fold Change, DLaminoadipic acid",platform nLC,0.443
same,"Fold Change, NacetylDglucosamine",platform nLC,0
same,"Fold Change, NacetylLglutamate",platform nLC,0.1369
same,"Fold Change, NacetylLornithine",platform nLC,0
same,"Fold Change, abscisic acid",platform nLC,0
same,"Fold Change, aconitic acid",platform nLC,0.6483
same,"Fold Change, adenine",platform nLC,0
same,"Fold Change, adenosine",platform nLC,0
same,"Fold Change, alanine",platform nLC,0.399
same,"Fold Change, allantoic acid",platform nLC,0.2392
same,"Fold Change, allantoin",platform nLC,0.3942
same,"Fold Change, anthranilic acid",platform nLC,0
same,"Fold Change, arginine",platform nLC,0.6484
same,"Fold Change, argininosuccinate",platform nLC,0
same,"Fold Change, asparagine",platform nLC,0.3545
same,"Fold Change, aspartic",platform nLC,0.4993
same,"Fold Change, benzoic acid",platform nLC,0.
same,"Fold Change, biotin",platform nLC,0.3455
same,"Fold Change, caffeic acid",platform nLC,−0.4711
same,"Fold Change, catechol",platform nLC,0
same,"Fold Change, cinnamic acid",platform nLC,0
same,"Fold Change, citricanoic/itaconi.",platform nLC,0
same,"Fold Change, citrulline",platform nLC,0
same,"Fold Change, coumaric acid",platform nLC,0
same,"Fold Change, cytidine",platform nLC,−0.7969
same,"Fold Change, cytosine",platform nLC,0
same,"Fold Change, decanoic acid",platform nLC,0.1846
same,"Fold Change, diaminopimelic acid",platform nLC,0
same,"Fold Change, dihydrofolic acid",platform nLC,0
same,"Fold Change, estrone",platform nLC,0
same,"Fold Change, farnesol",platform nLC,0
same,"Fold Change, folic acid",platform nLC,0
same,"Fold Change, fumaric/3m2oxobutan",platform nLC,0.6009
same,"Fold Change, gallic acid",platform nLC,0.5071
same,"Fold Change, gibberellic",platform nLC,0
same,"Fold Change, glucosamine6PO4",platform nLC,−0.9951
same,"Fold Change, glutamic/acetylseri",platform nLC,0.3842
same,"Fold Change, glutamine/lysine",platform nLC,0.3309
same,"Fold Change, guanine",platform nLC,0
same,"Fold Change, guanosine",platform nLC,−0.993
same,"Fold Change, histidine",platform nLC,0
same,"Fold Change, homogentisic/uric",platform nLC,0
same,"Fold Change, hydrocortisone",platform nLC,0
same,"Fold Change, hypoxanthine",platform nLC,0.7757
same,"Fold Change, indole3pyruvic acid",platform nLC,0
same,"Fold Change, inostol/glucos/sorb",platform nLC,−0.4744
same,"Fold Change, isocitric/citric/qu",platform nLC,1.457
same,"Fold Change, jasmonic acid",platform nLC,0
same,"Fold Change, kinetin",platform nLC,0
same,"Fold Change, lactic acid",platform nLC,−0.0439
same,"Fold Change, lauric acid",platform nLC,0.3906
same,"Fold Change, leucine/isoleucine/",platform nLC,0.3306
same,"Fold Change, luteolin",platform nLC,0
same,"Fold Change, malic acid",platform nLC,0.4366
same,"Fold Change, malonic acid",platform nLC,0
same,"Fold Change, menthol*",platform nLC,0.04758
same,"Fold Change, methionine",platform nLC,0
same,"Fold Change, nicotinic acid",platform nLC,2.443
same,"Fold Change, nopaline",platform nLC,0.3432
same,"Fold Change, oleic acid",platform nLC,−0.01684
same,"Fold Change, ornithine",platform nLC,0.3508
same,"Fold Change, orotic acid",platform nLC,0
same,"Fold Change, palmitic acid",platform nLC,−0.0233
same,"Fold Change, phenylalanine",platform nLC,0.1527
same,"Fold Change, phenylpyruvic acid",platform nLC,0
same,"Fold Change, phosphoenolpyruvate",platform nLC,0
same,"Fold Change, pinitol",platform nLC,0
same,"Fold Change, pipecolic acid",platform nLC,0.2901
same,"Fold Change, porphobilinogen",platform nLC,0
same,"Fold Change, proline",platform nLC,0.4164
same,"Fold Change, pyridoxine",platform nLC,−0.04201
same,"Fold Change, 4-aminobenzoic acid",platform pLC,0
same,"Fold Change, 4-methylcatechol",platform pLC,0
same,"Fold Change, 4ambutyrate/dimglyc",platform pLC,−0.4383
same,"Fold Change, 5hydroxyLtryptophan",platform pLC,0
same,"Fold Change, 6benzylaminopurine",platform pLC,0
same,"Fold Change, DL-aminoadipic acid",platform pLC,0.1155
same,"Fold Change, NacetylDglucosamine",platform pLC,0
same,"Fold Change, NacetylLglutamate",platform pLC,0
same,"Fold Change, NacetylLornithine",platform pLC,0.1584
same,"Fold Change, abscisic acid",platform pLC,0
same,"Fold Change, adenine",platform pLC,−0.09439
same,"Fold Change, adenosine",platform pLC,0
same,"Fold Change, alanine/sarcosine",platform pLC,0.1269
same,"Fold Change, allantoic acid",platform pLC,0
same,"Fold Change, anthranilic acid",platform pLC,0
same,"Fold Change, arginine",platform pLC,0.1179
same,"Fold Change, argininosuccinate",platform pLC,0
same,"Fold Change, asparagine",platform pLC,0.3192
same,"Fold Change, aspartic acid",platform pLC,0.214
same,"Fold Change, biotin",platform pLC,0
same,"Fold Change, caffeine",platform pLC,0
same,"Fold Change, citric acid TME",platform pLC,0
same,"Fold Change, citrulline",platform pLC,0.08252
same,"Fold Change, cytidine",platform pLC,0
same,"Fold Change, cytosine",platform pLC,0
same,"Fold Change, diaminopimelic acid",platform pLC,0
same,"Fold Change, dihydrofolic acid",platform pLC,0
same,"Fold Change, dipicolinic acid",platform pLC,0
same,"Fold Change, folic acid",platform pLC,0
same,"Fold Change, glucosamine",platform pLC,0
same,"Fold Change, glucosamine6PO4",platform pLC,0
same,"Fold Change, glutamate",platform pLC,−0.06179
same,"Fold Change, glutamine/lysine",platform pLC,0.2242
same,"Fold Change, glutathione",platform pLC,−0.05832
same,"Fold Change, guanosine",platform pLC,−0.9981
same,"Fold Change, histidine",platform pLC,0
same,"Fold Change, hydrocortisone",platform pLC,0
same,"Fold Change, hypoxanthine",platform pLC,0.1298
same,"Fold Change, itaconic acid dimes",platform pLC,0
same,"Fold Change, kinetin",platform pLC,0
same,"Fold Change, leucine/isoleucine/",platform pLC,0.1638
same,"Fold Change, luteolin",platform pLC,0
same,"Fold Change, mannitol",platform pLC,0.152
same,"Fold Change, methionine",platform pLC,−0.2906
same,"Fold Change, mevalonic lactone",platform pLC,−0.5175
same,"Fold Change, niacinamide",platform pLC,0
same,"Fold Change, nicotinic acid",platform pLC,−0.7982
same,"Fold Change, nopaline",platform pLC,0
same,"Fold Change, ornithine",platform pLC,0.4775
same,"Fold Change, phenylalanine",platform pLC,−0.1809
same,"Fold Change, phosphoenolpyruvate",platform pLC,0
same,"Fold Change, pipecolic acid",platform pLC,0.2583
same,"Fold Change, progesterone",platform pLC,0
same,"Fold Change, proline",platform pLC,0.2075
same,"Fold Change, pyridoxine",platform pLC,−0.3831

# Source: patent US20030229451A1, “Methods and systems for analyzing complex biological systems” (priority 2001, published 2003)
